# Assay results published in patent publication US20260258010A1, “THIOPHENE-2-CARBOXYLIC ACID DERIVATIVE, AND PREPARATION METHOD THEREFOR AND MEDICAL USE THEREOF” (CHINA PHARMACEUTICAL UNIVERSITY, priority 2023, published 2026).
# Read-outs that look alike come from different tables or passages of the source.
# Key:
# [1] = test system: IL-1β in the supernatant of the THP-1 cell culture medium; test: IL-1β ELISA in supernatant of LPS/ATP-stimulated THP-1 cell culture medium; assay type: cell-based, Human; conditions: PPTN 5 μM, PMA-differentiated THP-1, LPS 100 ng/mL + ATP 5 mM, FIG. 5
# Experimental: Human THP-1 cells were cultured in an RPMI-1640 culture medium (containing 10% fetal bovine serum, 100 U/mL penicillin, and 100 μg/mL streptomycin) and seeded into a culture plate at a density of 1×10^5 cells/well before the experiment. The cells were cultured at 37° C. with 95% 02 and 5% CO2 humidity. Before the experiment, PMA was added at 100 ng/mL to each well, and the cells were incubated for 24 h to induce the differentiation of the THP-1 cells into macrophages. Test compound 5 (2.5 μM, 5 μM, and 10 μM) and PPTN (5 μM) were added to the culture medium in advance for intervention. After 1 h, LPS at a final concentration of 100 ng/mL was added to the cells. After 3 h, ATP at a final concentration of 5 mM was added. After 1 h, the indexes were determined as follows:
# The level of IL-1β in the supernatant of the cell culture medium was detected by an ELISA kit (Shenzhen NeoBioscience Technology Co., Ltd.), and the results are shown in FIG. 5.
# acute peritonitis model = test: LPS-induced acute peritonitis model, inflammatory factors in peritoneal fluids; assay type: in vivo; conditions: 5, 10 and 20 mg/kg by intraarticular injection, male ICR mice, 6 h after injection, vs model control, FIGS. 6-8
# Experimental: Male clean-grade ICR mice were housed with free access to water and food, and with illumination for 12 h every day at an ambient temperature of 25±2° C. The animals were divided into several groups, that is, a normal control group, a model control group, and administration groups (test compound and dexamethasone). An acute peritonitis model was induced by a single intraperitoneal injection of LSP, while an equal volume of physiological saline was injected into the joint cavity in the normal control group. Each administration group was given test compound 5 (5 mg/kg, 10 mg/kg, and 20 mg/kg) and dexamethasone (10 mg/kg) by intraarticular injection. 6 h after the injection, 8 mL of PBS was injected, and the peritoneal cavity fluids were collected.
# P2Y14 receptor = target: T1, P2Y14 receptor (Homo sapiens, UniProt Q15391); test: cAMP inhibition assay in HEK293 cells stably transfected with the P2Y14 receptor (UDPG-stimulated, cAMP Glo); assay type: cell-based
# T1 construct: expressed in transfected cells; host or cells: HEK293
# T1 sequence (Q15391 1-338): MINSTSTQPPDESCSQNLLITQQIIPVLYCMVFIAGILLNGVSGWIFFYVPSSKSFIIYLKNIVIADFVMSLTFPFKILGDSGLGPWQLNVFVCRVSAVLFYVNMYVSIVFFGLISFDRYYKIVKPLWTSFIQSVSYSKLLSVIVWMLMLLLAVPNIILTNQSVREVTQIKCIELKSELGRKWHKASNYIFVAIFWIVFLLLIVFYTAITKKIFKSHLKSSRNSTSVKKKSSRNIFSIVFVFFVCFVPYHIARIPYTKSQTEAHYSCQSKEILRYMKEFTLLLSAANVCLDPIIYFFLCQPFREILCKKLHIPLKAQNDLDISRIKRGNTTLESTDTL
# Experimental: An HEK293 cell strain stably transfected with the P2Y14 receptor was cultured in a DMEM culture medium (containing […], 100 U/mL penicillin, and 100 μg/mL streptomycin). Before the experiment, the cells were seeded into a culture plate at a density of 1×10^5 cells/well, and a serum-free culture medium was used instead. The cells were cultured at 37° C. with […] and 5% CO2 humidity. IBMX was added to inhibit the activity of PDEs, thereby ensuring a relatively high level of cAMP. The AC agonist Forskolin (30 μM) was adopted to stimulate the production of cellular cAMP. Test compounds at different concentrations (0.01 nm, 0.1 nm, 1 nm, 10 nm, and 100 nm) were added in advance, and PPTN was used as a positive control. Subsequently, 1 μM P2Y14 receptor agonist UDPG was added, and after 4 h, the content of intracellular cAMP was measured using a cAMP Glo™ Assay kit (PROMEGA Co. Ltd., USA). The inhibition rate was calculated based on the cAMP content.
# [2] = 100 nM compound, HEK293 stably transfected with P2Y14 receptor, 30 μM Forskolin, 1 μM UDPG, 4 h, inhibition rate from cAMP content, read-out: Inhibition @ 100 nM
SMILES,inhibition at 0.1 µM (P2Y14 receptor; [2]) [%],other results
O=C(O)c1cc(-c2ccc(C3CCNCC3)cc2)c2ccc(-c3ccc(C(F)(F)F)cc3)cc2c1 [PPTN],–,level of IL-1β in the supernatant of the cell culture medium [1]: showed an expected effect
"Cc1ccc(C(=O)Nc2cc(C(=O)O)sc2Oc2ccc(C)nc2)cc1 [Compound 5, 5-((6-methylpyridin-3-yl)oxy)-4-(4-methylbenzamido)thiophene-2-carboxylic acid]",99.4,gene expression levels of inflammatory factors in mouse peritoneal fluids (acute peritonitis model): down-regulate the gene expression levels of inflammatory factors to different degrees
Cc1ccc(C(=O)Nc2cc(C(=O)O)sc2Sc2ccc(C(F)(F)F)cc2)cc1 [Compound 12-4],82.5,–
Cc1ccc(Oc2sc(C(=O)O)cc2NC(=O)c2ccc(C(C)C)cc2)cn1 [Compound 15-5],78.7,–
Cc1ccc(C(=O)Nc2cc(C(=O)O)sc2Nc2ccc(F)cc2)cc1 [Compound 9-2],55.7,–
Cc1ccc(C(=O)Nc2cc(C(=O)O)sc2Oc2ccc(C)cn2)cc1 [Compound 6-4],–,"inhibition at 0.1 µM (P2Y14 receptor; HEK293, read-out: Inhibition @ 100 nM): 81.3%"
Cc1ccc(C(=O)Nc2cc(C(=O)O)sc2Oc2ccc(F)nc2)cc1 [Compound 6-2],88.4,–
Cc1ccc(C(=O)Nc2cc(C(=O)O)sc2Oc2ccncc2)cc1 [Compound 6-6],43.5,–
